Source: ChEMBL document CHEMBL5257136, “PROTAC Targeted Degradation of IRAK-4 as Potential Treatment in Cancer” (ACS Med Chem Lett, 2023)

What was measured:
Assay type in all cases: cell-based
[1] = molecular target: T1, Protein cereblon/Interleukin-1 receptor-associated kinase 4 (Homo sapiens, UniProt Q96SW2+Q9NWZ3); experiment: Binding affinity to CRBN/IRAK4 in human PBMC cells assessed as inhibition of R848-stimulated IL-6 production incubated for 24 hrs by MSD analysis
[2] = molecular target: T1, Protein cereblon/Interleukin-1 receptor-associated kinase 4; experiment: Binding affinity to CRBN/IRAK4 in human PBMC cells assessed as inhibition of LPS-stimulated IL-6 production incubated for 24 hrs by MSD analysis
[3] = molecular target: T2, Protein cereblon/Interleukin-1 receptor-associated kinase 4 (Homo sapiens) (UniProt Q9NWZ3+Q96SW2); experiment: Binding affinity to CRBN/IRAK4 in human PBMC cells assessed as inhibition of R848-stimulated IL-6 production by measuring maximal efficacy incubated for 24 hrs by MSD analysis relative to control
[4] = molecular target: T2, Protein cereblon/Interleukin-1 receptor-associated kinase 4 (Homo sapiens); experiment: Binding affinity to CRBN/IRAK4 in human PBMC cells assessed as inhibition of LPS-stimulated IL-6 production by measuring maximal efficacy incubated for 24 hrs by MSD analysis relative to control

T1 sequence (Q9NWZ3 whole entry): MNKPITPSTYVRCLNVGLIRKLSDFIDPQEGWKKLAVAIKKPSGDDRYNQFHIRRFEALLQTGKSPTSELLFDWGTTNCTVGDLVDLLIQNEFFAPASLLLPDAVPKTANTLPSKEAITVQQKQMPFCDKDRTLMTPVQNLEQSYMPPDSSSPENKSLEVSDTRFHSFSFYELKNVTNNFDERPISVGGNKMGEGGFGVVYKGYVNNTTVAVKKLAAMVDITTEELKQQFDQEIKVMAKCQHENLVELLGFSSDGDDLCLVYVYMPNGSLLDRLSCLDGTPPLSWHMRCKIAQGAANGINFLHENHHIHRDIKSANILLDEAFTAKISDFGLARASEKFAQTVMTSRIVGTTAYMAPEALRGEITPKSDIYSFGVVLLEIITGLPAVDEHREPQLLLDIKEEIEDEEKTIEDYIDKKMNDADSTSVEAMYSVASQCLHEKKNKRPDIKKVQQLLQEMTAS
T1 sequence (Q96SW2 whole entry): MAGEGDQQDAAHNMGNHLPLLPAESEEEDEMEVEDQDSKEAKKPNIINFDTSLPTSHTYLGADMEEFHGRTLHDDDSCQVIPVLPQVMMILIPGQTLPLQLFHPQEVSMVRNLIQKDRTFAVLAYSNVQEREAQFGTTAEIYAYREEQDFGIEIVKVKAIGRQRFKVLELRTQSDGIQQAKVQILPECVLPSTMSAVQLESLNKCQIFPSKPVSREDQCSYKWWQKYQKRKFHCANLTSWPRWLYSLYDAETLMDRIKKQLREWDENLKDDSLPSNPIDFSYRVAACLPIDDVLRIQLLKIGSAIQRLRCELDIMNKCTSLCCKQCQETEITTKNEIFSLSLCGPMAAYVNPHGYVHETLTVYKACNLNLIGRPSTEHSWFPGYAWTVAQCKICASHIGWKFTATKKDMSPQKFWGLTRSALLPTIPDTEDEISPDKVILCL
T2 sequence (Q96SW2 whole entry, looked up): as the sequence (Q96SW2 whole entry) above
T2 sequence (Q9NWZ3 whole entry, looked up): as the sequence (Q9NWZ3 whole entry) above

| Structure (SMILES) | IC50 [1] | IC50 [2] | Emax [3] | Emax [4] |
| --- | --- | --- | --- | --- |
| O=C1CCC(N2Cc3ccc(N4CCC(CN5CCC(N6Cc7cc(NC(=O)c8cnn9cccnc89)c(N8CCC(N9CCC9)CC8)cc7C6=O)CC5)CC4)cc3C2=O)C(=O)N1 (stereo not given) | < 10 nM | < 10 nM | > 90% | > 90% |
| O=C1CCC(N2Cc3cc(N4CCC(CN5CCC(n6cc7cc(NC(=O)c8cnn9cccnc89)c(OCC(F)F)cc7n6)CC5)CC4)ccc3C2=O)C(=O)N1 (stereo not given) | < 10 nM | ≥ 10 nM | > 90% | 70% |
| O=C1CCC(N2C(=O)c3ccc(N4CCC(CN5CCC(N6Cc7cc(NC(=O)c8cnn9cccnc89)c(N8CCN(CC(F)F)CC8)cc7C6=O)CC5)CC4)cc3C2=O)C(=O)N1 (stereo not given) | ≥ 10 nM | ≥ 10 nM | 80% | 80% |
| O=C1CCC(N2Cc3ccc(N4CC(F)(CN5CCC(N6Cc7cc(NC(=O)c8cnn9cccnc89)c(N8CCC(N9CCC9)CC8)cc7C6=O)CC5)C4)cc3C2=O)C(=O)N1 (stereo not given) | < 10 nM | < 10 nM | > 90% | 80% |
| O=C1CCC(N2Cc3cc(N4CCC(CN5CCC(N6Cc7cc(NC(=O)c8cnn9cccnc89)c(N8CCC(N9CCC9)CC8)cc7C6=O)CC5)CC4)ccc3C2=O)C(=O)N1 (stereo not given) | < 10 nM | < 10 nM | > 90% | > 90% |
| CC(C)Oc1cc2c(cc1NC(=O)c1cnn3cccnc13)CN(C1CCN(CC3CCN(c4ccc5c(c4)C(=O)N(C4CCC(=O)NC4=O)C5=O)CC3)CC1)C2=O (stereo not given) | < 10 nM | < 10 nM | > 90% | 80% |
| O=C1CCC(N2Cc3c(ccc(N4CCC(CN5CCC(n6cc7cc(NC(=O)c8cnn9cccnc89)c(N8CCN(CC(F)F)CC8)cc7n6)CC5)CC4)c3F)C2=O)C(=O)N1 (stereo not given) | < 10 nM | < 10 nM | > 90% | 80% |
| CC(C)Oc1cc2c(cc1NC(=O)c1cnn3cccnc13)CN(C1CCN(C(C)(C)C3CN(c4ccc5c(c4)C(=O)N(C4CCC(=O)NC4=O)C5=O)C3)CC1)C2=O (stereo not given) | ≥ 10 nM | ≥ 10 nM | > 90% | > 90% |
| O=C1CCC(N2Cc3ccc(N4CCC(CN5CCC(n6cc7cc(NC(=O)c8cnn9cccnc89)c(OCC8CC8)cc7n6)CC5)CC4)cc3C2=O)C(=O)N1 (stereo not given) | < 10 nM | < 10 nM | > 90% | 80% |
| CC(C)Oc1cc2c(cc1NC(=O)c1cnn3cccnc13)CN(C1CCN(CC3(F)CN(c4ccc5c(c4F)CN(C4CCC(=O)NC4=O)C5=O)C3)CC1)C2=O (stereo not given) | ≥ 50 nM | ≥ 10 nM | > 90% | > 90% |
